Measured values from ChEMBL document CHEMBL1255413, “Proteus mirabilis pmrI, an RppA-regulated gene necessary for polymyxin B resistance, biofilm formation, and urothelial cell invasion” (2010).
Converted amounts (≈) assume the structure as drawn.

Tests used:
Proteus mirabilis [1] = assay: Antimicrobial activity against wild type Proteus mirabilis N2 […] after 16 to 18 hrs by broth microdilution method; type: functional
Proteus mirabilis [2] = assay: Antimicrobial activity against PpmrI knockout mutant Proteus mirabilis dIp after 16 to 18 hrs by broth microdilution method; type: functional
Proteus mirabilis [3] = assay: Antimicrobial activity against PpmrI knockout mutant Proteus mirabilis dIpc complemented with PPmrI gene after 16 to 18 hrs by broth microdilution method; type: functional
Proteus mirabilis [4] = assay: Antimicrobial activity against Proteus mirabilis I2 mutant after 16 to 18 hrs by broth microdilution method; type: functional, organism-based

Molecule | MIC (Proteus mirabilis [1]) [µg/mL] | MIC (Proteus mirabilis [2]) [µg/mL] | MIC (Proteus mirabilis [3]) [µg/mL] | MIC (Proteus mirabilis [4]) [µg/mL]
CN(C)[C@@H]1C(O)=C(C(N)=O)C(=O)[C@@]2(O)C(O)=C3C(=O)c4c(O)cccc4[C@@](C)(O)[C@H]3C[C@@H]12 [TETRACYCLINE] | 32 (≈ 72 µM) | 32 (≈ 72 µM) | 32 (≈ 72 µM) | 
CC1(C)S[C@@H]2[C@H](NC(=O)[C@H](N)c3ccccc3)C(=O)N2[C@H]1C(=O)O [AMPICILLIN] | 16 (≈ 45.8 µM) | 16 (≈ 45.8 µM) | 16 (≈ 45.8 µM) | 
GENTAMICIN | 4 | 4 | 4 | 
C[C@@H](O)[C@H]1C(=O)N2C(C(=O)O)=C(SCCNC=N)C[C@H]12 [IMIPENEM ANHYDROUS] | 2 (≈ 6.68 µM) | 0.25 (≈ 0.835 µM) | 2 (≈ 6.68 µM) | 
POLYMYXIN B |  | 4 |  | 4
